# Measured values: patent publication US5302621A, “Azasteroid compounds for the treatment of prostatic hypertrophy, their preparation and use” (Sankyo Company, Limited, priority 1990, dated 1994)
# Assays:
# rat 5α-reductase = test: Assay of Rat 5α-reductase Inhibition; assay type: biochemical, rat (Sprague-Dawley); details: 10^-8 M test compound; rat prostate 5α-reductase, 1 μM [14C] testosterone, pH 6.5, 37° C., 15 to 30 minutes
# Method: The prostatic lobes of a mature male rat (body weight 350-450 g, Sprague-Dawley strain) were cut into small pieces with scissors. About three parts by weight of a buffer solution [20 mM potassium phosphate buffer solution (ph 7.4) containing 0.33M sucrose, 1 mM dithiothreitol, 50 μM nicotinamide adenine dinucleotide phosphate-reduced form (NADPH) and 0.001% PMSF (phenylmethyl sulfonyl fluoride)] were added to one part by weight of the tissue pieces, and the mixture was homogenized first by means of a Polytron (trade mark, KINEMATICA GmbH) homogenizer, and then by means of a Teflon (trade mark) glass homogenizer. The prostatic tissue suspension thus homogenized was then centrifuged (140000×g, 60 minutes) to separate the precipitate.
# About three parts by weight of the buffer solution described above were added to one part of the precipitate to suspend it, and the suspension was centrifuged again (140000×g, 60 minutes) to wash it and separate a precipitate, which was regarded as a rat 5α-reductase preparation. Sufficient of the buffer solution described above was added to this precipitate for the protein content of the solution to become between 20 and 40 mg/ml. The solution was frozen and stored at -80° C. The protein content was determined by a Bio-Rad protein assay in which bovine γ-globulin (Cohn Fraction II, Sigma) was used as the protein standard.
# 5 μl of a dimethyl sulfoxide or ethanol solution in which a test compound to be tested was dissolved were added to 0.5 ml of a 40 mM potassium phosphate buffer solution (pH 6.5) containing rat 5α-reductase (protein content, 1 mg), 1 μM [^14 C] testosterone, 1 mM dithiothreitol and 500 μM NADPH (final concentration 10^-8 M of the test compound), and incubated for 15 to 30 minutes at 37° C. As a control, only the solvent was added to one sample. 2 ml of ethyl acetate containing 10 μg each of testosterone, 5α-dihydrotestosterone and androstenedione were then added to stop the reaction. The mixture was centrifuged (1400×g, 5 minutes). The ethyl acetate layer was separated and transferred to another test tube, where it was evaporated to dryness whilst spraying it with nitrogen gas. The steroids were dissolved in 40 μl of ethyl acetate. The solution was spotted on a thin layer chromatographic plate (LK5DF silica plate, Whatman), and developed with a mixture of ethyl acetate with cyclohexane (1:1 by volume) twice at room temperature. The steroid fraction was identified by color development by ultraviolet radiation or by heating with a […]/10% sulfuric acid solution. The radioactivity on the thin layer chromatographic plate was measured by means of a bio-image analyzer (Fuji Film Co. Ltd.). The enzyme activity was given by the amount [conversion rate (%)] of [^14 C] 5α-dihydro-testosterone which was converted from the [^14 C] testosterone initially added. The rat 5α-reductase inhibiting activity of a test sample was calculated from the following equation: [formula]
# [1] = tested on: testosterone 5α-reductase; details: background, U.S. Pat. No. 4,179,453 and 4,760,071; cited from earlier work
SMILES,Rat 5α-reductase inhibiting activity: Inhibiting activity (%) (rat 5α-reductase),"5α-reductase inhibitory activity of prior-art compounds, in words [1]"
"C[C@]12C=CC(=O)N[C@@H]1CC[C@@H]1[C@@H]2CC[C@]2(C)[C@@H](C(=O)N[C@H](c3ccccc3)[C@@H](O)c3ccccc3)CC[C@@H]12 [Example No. 73, N-[(1R,2S)-2-Hydroxy-1,2-diphenylethyl]-3-oxo-4-aza-5α-androst-1-ene-17β-carboxamide]",80.5,–
"CN1C(=O)CC[C@]2(C)[C@H]3CC[C@]4(C)[C@@H](C(=O)NC(c5ccccc5)c5ccccc5)CC[C@H]4[C@@H]3CC[C@@H]12 [Example No. 20, N-(Diphenylmethyl)-4-methyl-3-oxo-4-aza-5α-androstane-17β-carboxamide]",86.7,–
"C[C@]12CCC(=O)N[C@@H]1CC[C@@H]1[C@@H]2CC[C@]2(C)[C@@H](C(=O)NC(Cc3ccccc3)c3ccccc3)CC[C@@H]12 (stereo partly drawn) [Example No. 3, N-(1,2-Diphenylethyl)-3-oxo-4-aza-5α-androstane-17β-carboxamide]",89.1,–
CCN(CC)C(=O)C1CCC2C3CCC4NC(=O)C=CC4(C)C3CCC12C (centres unmarked) [Compound A1],–,quite a potent activity
"CN1C(=O)CC[C@@]2(C)C1=CC[C@H]1[C@@H]3CC[C@H](C(=O)NC(C)(C)c4ccccc4)[C@@]3(C)CC[C@@H]12 [Example No. 42, N-(1-Methyl-1-phenylethyl)-4-methyl-3-oxo-4-aza-androst-5-ene-17β-carboxamide]",72.3,–
"C[C@]12CC[C@H]3[C@@H](CC=C4NC(=O)CC[C@@]43C)[C@@H]1CC[C@@H]2C(=O)NC(Cc1ccccc1)c1ccccc1 (stereo partly drawn) [Example No. 12, N-(1,2-Diphenylethyl)-3-oxo-4-azaandrost-5-ene-17β-carboxamide]",78.4,–
"C[C@]12C=CC(=O)N[C@@H]1CC[C@@H]1[C@@H]2CC[C@]2(C)[C@@H](C(=O)NN(c3ccccc3)c3ccccc3)CC[C@@H]12 [Example No. 65, N,N-Diphenyl-3-oxo-4-aza-5α-androst-1-ene-17β-carbohydrazide]",80.0,–
"C[C@]12CCC(=O)N[C@@H]1CC[C@@H]1[C@@H]2CC[C@]2(C)[C@@H](C(=O)NC(c3ccccc3)c3ccccc3)CC[C@@H]12 [Example No. 1, N-(Diphenylmethyl)-3-oxo-4-aza-5α-androstane-17β-carboxamide]",89.2,–
"Cc1ccc(C[C@H](NC(=O)[C@H]2CC[C@H]3[C@@H]4CC[C@H]5NC(=O)CC[C@]5(C)[C@H]4CC[C@]23C)c2ccccc2)cc1 [Example No. 62, N-[(S)-2-(4-Methylphenyl)-1-phenylethyl]-3-oxo-4-aza-5α-androstane-17β-carboxamide]",90.1,–
"C[C@]12C=CC(=O)N[C@@H]1CC[C@@H]1[C@@H]2CC[C@]2(C)[C@@H](C(=O)NC(Cc3ccccc3)c3ccccc3)CC[C@@H]12 (stereo partly drawn) [Example No. 8, N-(1,2-Diphenylethyl)-3-oxo-4-aza-5α-androst-1-ene-17β-carboxamide]",74.6,–
"CN1C(=O)CC[C@]2(C)[C@H]3CC[C@]4(C)[C@@H](C(=O)NC(C)(c5ccccc5)c5ccccc5)CC[C@H]4[C@@H]3CC[C@@H]12 [Example No. 26, N-(1,1-Diphenylethyl)-4-methyl-3-oxo-4-aza-5α-androstane-17β-carboxamide]",87.3,–
"CC(C)(C)NC(=O)C1CCC2C3CCC4NC(=O)C=CC4(C)C3CCC12C (centres unmarked) [Compound A2, reference compound]",30.0,quite a potent activity
"CN1C(=O)CC[C@]2(C)[C@H]3CC[C@]4(C)[C@@H](C(=O)NC(C)(C)c5ccccc5)CC[C@H]4[C@@H]3CC[C@@H]12 [Example No. 40, N-(1-Methyl-1-phenylethyl)-4-methyl-3-oxo-4-aza-5α-androstane-17β-carboxamide]",88.6,–
"COc1ccc(C(C)(C)NC(=O)[C@H]2CC[C@H]3[C@@H]4CC[C@H]5NC(=O)C=C[C@]5(C)[C@H]4CC[C@]23C)cc1 [Example No. 44, N-[1-(4-Methoxyphenyl)-1-methylethyl]-3-oxo-4-aza-5α-androst-1-ene-17β-carboxamide]",73.2,–
"CC(C)(NC(=O)[C@H]1CC[C@H]2[C@@H]3CC[C@H]4NC(=O)CC[C@]4(C)[C@H]3CC[C@]12C)c1ccccc1 [Example No. 37, N-(1-Methyl-1-phenylethyl)-3-oxo-4-aza-5α-androstane-17β-carboxamide]",82.2,–
"C[C@]12CCC(=O)N[C@@H]1CC[C@@H]1[C@@H]2CC[C@]2(C)[C@@H](C(=O)N(Cc3ccccc3)Cc3ccccc3)CC[C@@H]12 [Example No. 4, N,N-Dibenzyl-3-oxo-4-aza-5α-androstane-17β-carboxamide]",74.1,–
